One data set has as its target T1, CYP 3A4M (Homo sapiens, UniProt P08684).
T1 construct: from tissue; host or cells: human liver microsomes
Nature of the data set: CYP 3A4M inhibition test in human liver microsomes (probe midazolam). It is filed as in vitro ADME. The settings on record: probe substrate midazolam, read-out: CYP 3A4M (μM), half inhibition concentration (IC50). The procedure:
Probe substrate: Midazolam, National Institute of Control of Pharmaceutical & Biological Products, 171265.
Positive control: Ketoconazole, purchased from Dingdang Chemical, DTYC 0516-17.
(§1) A probe substrate (50 μl), PBS (49 μl) and a test compound in different concentrations (0.05 μM, 0.15 μM, 0.5 μM, 1.5 μM, 5 μM, 15 μM, 50 μM) or a positive control (1 μl) were mixed with human liver microsomes (HLM, 50 μl) to give 150 μl of a mixed liquid, which was subjected to pre-incubation (37° C.) for 5 min, then added with NADPH (50 μl) and incubated for 30 min. The reaction was quenched by adding 200 μl of glacial acetonitrile. An appropriate volume of an internal standard substance was added, and after vortex treatment and centrifugation, the supernatant was obtained.
(§2) The detection was performed by using LC-MS/MS. The mass spectrometer was API 5500, the liquid chromatograph was Waters ACQUITY UPLC I-CLASS system. The chromatographic column was Hypersil GOLD C18, 1.9 μm particle size, 50×2.1 mm; mobile phase A: water+0.1% formic acid, mobile phase B: acetonitrile; flow rate: 0.4 ml/min, column temperature: 40° C. The ion source as used was ESI source positive ion mode, and the scanning mode was Multiple Reaction Monitoring (MRM).
(§3) By using solvent group (DMSO) as negative control, the concentrations of the main metabolite converted from the probe substrate in the case of different concentrations of the test compound were measured, to determine the half inhibition concentration of the compound (IC50).

In another data set the target is T2, CYP 3A4T (Homo sapiens, UniProt P08684).
T2 construct: from tissue; host or cells: human liver microsomes
T2 sequence (P08684 whole entry): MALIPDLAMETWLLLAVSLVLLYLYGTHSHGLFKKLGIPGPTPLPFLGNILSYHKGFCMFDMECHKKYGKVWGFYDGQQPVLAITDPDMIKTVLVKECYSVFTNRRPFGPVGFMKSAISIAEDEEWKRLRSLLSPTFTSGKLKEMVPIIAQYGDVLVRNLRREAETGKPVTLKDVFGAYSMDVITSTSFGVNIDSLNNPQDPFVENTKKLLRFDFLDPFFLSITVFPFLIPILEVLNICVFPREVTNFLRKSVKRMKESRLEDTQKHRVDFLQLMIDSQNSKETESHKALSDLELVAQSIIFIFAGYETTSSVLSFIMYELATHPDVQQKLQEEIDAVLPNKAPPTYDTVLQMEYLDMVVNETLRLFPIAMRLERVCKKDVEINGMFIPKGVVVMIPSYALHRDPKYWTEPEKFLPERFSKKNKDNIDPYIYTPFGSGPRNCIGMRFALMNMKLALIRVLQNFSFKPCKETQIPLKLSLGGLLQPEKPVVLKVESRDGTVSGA
Nature of the data set: CYP 3A4T inhibition test in human liver microsomes (probe testosterone). It is filed as in vitro ADME. Particulars: probe substrate testosterone, read-out: CYP 3A4T (μM), half inhibition concentration (IC50). The procedure:
Probe substrate: Testosterone, European Pharmacopoeia (EP) Reference Standard, Sigma-Aldrich, T0100000.
Positive control: Ketoconazole, Dingdang Chemical, DTYC 0516-17.
as §1, §2, §3

The nature of data set [1]: Rat pharmacokinetic (PK) studies, plasma and liver. It is filed as in vivo. The settings on record: male SD rats, p.o. 5 mg/kg; for AUC(0-t) / Cmax / bioavailability / half-life / Kp: rat, po; for Kp: male, SD, liver relative to plasma, 5 mg/kg. The procedure:
The test compound was administered intragastrically (p.o.) to male SD rats at a dose of 5 mg/kg. The solvent system was 0.5% MC during the p.o. administration. After p.o. administration, blood was collected for PK studies at 5 min, 15 min, 30 min, 1 h, 2 h, 4 h, 6 h, 8 h, and 24 h. After p.o. administration, liver tissues were collected at 15 min, 1 h, 4 h, 8 h and 24 h, and the liver tissue sample, after being subjected to protein precipitation treatment, was analyzed by a LC-MS/MS. The mass spectrometer was API 5500, and the liquid chromatograph was Waters ACQUITY I CLASS system: chromatographic column: Agela ASB C18 column (2.1 mm×50 mm, 1.9 μm); mobile phase A: water+0.1% formic acid, mobile phase B: acetonitrile; flow rate: 0.4 mL/min, column temperature: 40° C. The ion source as used was ESI source positive ion mode, and the scanning mode was Multiple Reaction Monitoring (MRM).

Another data set concerns the target T3, CCR2 (Homo sapiens, UniProt P41597).
T3 construct: host or cells: HEK293
Nature of the data set: Inhibition test on activity of CCR2 in cells (calcium fluorescence, MCP1 stimulation). It is filed as cell-based. Particulars: HEK293 cells stably expressing CCR2, ligand MCP1. From the text: (§4) HEK293 cells that stably express CCR2 and CCR5 receptor proteins were first labeled with calcium ion sensitive fluorescent probe and then stimulated with corresponding ligands (MCP1 and RANTES). After the stimulation, the receptors were activated to trigger the release of the calcium ions from endoplasmic reticulum to cytoplasm. And once the calcium ions were captured by the fluorescent probe, the fluorescent signal could be triggered. The inhibition of compounds on CCR2 and CCR5 can be evaluated by detecting the intensity of the fluorescent signal.
(§5) To each well of the 384-well plates, 2×10^4 HEK293 cells were added and cultured overnight. After being labelled by fluorescent probe, MCP1 and RANTES in different concentrations were added, and the fluorescent signal was read. The fluorescence signal was plotted in relation to the ligand concentration, and according to the four-parameter model, IC50 values were calculated as the ligand concentrations of the CCR2 and CCR5 for the subsequent detection of the compounds.
(§6) By referring to the above results, cells were incubated with the test compound in different concentrations (5000 nM, 1250 nM, 313 nM, 78 nM, 20 nM, 4.8828 nM, 1.2207 nM, 0.3052 nM, 0.0763 nM, and 0.0191 nM), and after MCP1 and RANTES were added thereto, the fluorescent signal was read. The inhibition activity of each concentration group was calculated, wherein the solvent group (not containing the compound) was as the negative control, and the Buffer group (not containing any ligand) was as the blank control: Relative inhibition activity percentage=1−(fluorescent signal of each concentration group-fluorescent signal of the blank group)/(fluorescent signal of the solvent group-fluorescent signal of the blank group)*100%.
(§7) The inhibition activity percentage of each concentration group was plotted in relation to the concentration of the compound, and the curve was fitted according to the four-parameter model, IC50 values were calculated: y=min+(max−min)/(1+(x/IC50)^(−Hillslope))
(§8) wherein y is the relative inhibition activity percentage; max, min are the maximum and minimum values of the fitted curve, respectively; x is the concentration of the compound, and Hillslope is the slope of the curve.

A further data set concerns the target T4, CCR5 (Homo sapiens, UniProt P51681).
T4 construct: host or cells: HEK293
Nature of the data set: Inhibition test on activity of CCR5 in cells (calcium fluorescence, RANTES stimulation). It is filed as cell-based. Particulars: HEK293 cells stably expressing CCR5, ligand RANTES.
Description: as §4, §5, §6, §7, §8

Another data set addresses T5, CYP 1A2 (Homo sapiens, UniProt P05177).
T5 construct: from tissue; host or cells: human liver microsomes
T5 sequence (P05177 1-516): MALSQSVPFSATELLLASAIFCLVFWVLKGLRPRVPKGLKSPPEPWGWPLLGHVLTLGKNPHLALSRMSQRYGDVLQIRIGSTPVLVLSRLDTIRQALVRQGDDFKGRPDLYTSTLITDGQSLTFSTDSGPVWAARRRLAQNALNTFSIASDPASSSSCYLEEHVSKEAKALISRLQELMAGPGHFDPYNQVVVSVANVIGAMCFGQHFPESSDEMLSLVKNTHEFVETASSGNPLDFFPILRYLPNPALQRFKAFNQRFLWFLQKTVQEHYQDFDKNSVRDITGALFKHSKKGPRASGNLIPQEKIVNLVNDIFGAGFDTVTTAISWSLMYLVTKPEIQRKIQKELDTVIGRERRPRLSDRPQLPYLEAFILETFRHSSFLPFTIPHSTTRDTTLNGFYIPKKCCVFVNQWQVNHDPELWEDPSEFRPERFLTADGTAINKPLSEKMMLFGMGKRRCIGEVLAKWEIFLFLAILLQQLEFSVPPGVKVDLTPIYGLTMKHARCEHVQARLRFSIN
Put plainly: CYP 1A2 inhibition test in human liver microsomes (probe phenacetin). In kind it is in vitro ADME. Particulars: probe substrate phenacetin, read-out: CYP 1A2 (μM), half inhibition concentration (IC50). The method, then:
Probe substrate: Phenacetin, National Institute of Control of Pharmaceutical & Biological Products, 100095.
Positive control: alpha-naphthoflavane, ACras, A0331533.
as §1, §2, §3

For a further data set, the target named is T6, CYP 2D6 (Homo sapiens, UniProt P10635).
T6 construct: from tissue; host or cells: human liver microsomes
T6 sequence (P10635 whole entry): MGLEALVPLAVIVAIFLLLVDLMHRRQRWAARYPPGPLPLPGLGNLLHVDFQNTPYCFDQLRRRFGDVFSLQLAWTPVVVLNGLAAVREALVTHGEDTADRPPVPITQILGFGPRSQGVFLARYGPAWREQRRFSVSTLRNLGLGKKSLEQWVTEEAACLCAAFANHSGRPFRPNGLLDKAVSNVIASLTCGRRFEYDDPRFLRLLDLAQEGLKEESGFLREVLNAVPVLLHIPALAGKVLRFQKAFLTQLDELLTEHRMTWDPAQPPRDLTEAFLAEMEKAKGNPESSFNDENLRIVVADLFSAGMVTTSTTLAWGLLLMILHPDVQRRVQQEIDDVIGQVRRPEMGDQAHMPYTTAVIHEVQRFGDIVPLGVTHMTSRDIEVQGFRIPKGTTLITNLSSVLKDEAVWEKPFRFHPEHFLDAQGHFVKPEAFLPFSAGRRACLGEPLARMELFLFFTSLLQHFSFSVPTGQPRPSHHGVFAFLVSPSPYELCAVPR
Nature of the data set: CYP 2D6 inhibition test in human liver microsomes (probe dextromethorphan). Particulars: probe substrate dextromethorphan, read-out: CYP 2D6 (μM), half inhibition concentration (IC50). It is filed as in vitro ADME. The method, then:
Probe substrate: Dextromethorpha, Beijing Jinbao, 100201.
Positive control: Quinidine, Damas-bata, P1176507.
as §1, §2, §3

In data set [2] the target is T7, hERG potassium ion channels (Homo sapiens, UniProt Q12809).
T7 construct: expressed in transfected cells; host or cells: HEK293
T7 sequence (Q12809 whole entry): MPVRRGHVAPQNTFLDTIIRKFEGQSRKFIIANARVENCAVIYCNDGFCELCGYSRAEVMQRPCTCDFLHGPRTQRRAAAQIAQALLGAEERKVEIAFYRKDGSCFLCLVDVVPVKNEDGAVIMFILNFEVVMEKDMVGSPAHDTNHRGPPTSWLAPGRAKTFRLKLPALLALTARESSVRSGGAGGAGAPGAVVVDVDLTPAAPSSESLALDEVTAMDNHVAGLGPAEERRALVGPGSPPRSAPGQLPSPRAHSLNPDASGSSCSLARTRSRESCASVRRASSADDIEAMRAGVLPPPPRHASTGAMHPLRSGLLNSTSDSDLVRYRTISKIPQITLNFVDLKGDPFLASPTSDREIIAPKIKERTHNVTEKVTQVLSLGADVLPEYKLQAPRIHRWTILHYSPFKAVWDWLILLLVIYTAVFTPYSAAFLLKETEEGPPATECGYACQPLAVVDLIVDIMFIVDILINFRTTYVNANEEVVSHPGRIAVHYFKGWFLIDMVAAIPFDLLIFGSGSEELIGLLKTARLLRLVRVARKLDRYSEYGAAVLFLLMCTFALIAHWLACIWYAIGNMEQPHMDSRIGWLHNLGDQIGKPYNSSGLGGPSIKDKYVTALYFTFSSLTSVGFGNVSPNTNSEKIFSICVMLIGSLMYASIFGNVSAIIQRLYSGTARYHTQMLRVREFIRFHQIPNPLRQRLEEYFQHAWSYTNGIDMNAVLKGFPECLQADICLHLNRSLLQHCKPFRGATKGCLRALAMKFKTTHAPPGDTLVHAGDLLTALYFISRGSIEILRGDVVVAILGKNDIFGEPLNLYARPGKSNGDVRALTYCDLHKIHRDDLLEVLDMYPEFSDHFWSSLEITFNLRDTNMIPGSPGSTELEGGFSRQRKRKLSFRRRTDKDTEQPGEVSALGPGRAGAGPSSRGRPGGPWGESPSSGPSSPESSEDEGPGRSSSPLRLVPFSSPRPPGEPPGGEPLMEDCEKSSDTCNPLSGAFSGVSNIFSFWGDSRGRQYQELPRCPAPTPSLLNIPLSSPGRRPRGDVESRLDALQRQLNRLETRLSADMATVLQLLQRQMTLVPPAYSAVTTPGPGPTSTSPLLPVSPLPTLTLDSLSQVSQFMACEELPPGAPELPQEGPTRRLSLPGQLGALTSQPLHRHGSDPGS
Nature of the data set: hERG inhibition test, manual patch clamp, HEK293 cells over-expressing hERG. In kind it is cell-based. Particulars: tested at 1 μM and 10 μM. The method, then: Different concentrations (1 μM and 10 μM) of the test compound and 30 μM positive control Quinidine were formulated. HEK293 cells over-expressing hERG potassium ion channels were cultured in 5% CO2 incubator at 37° C. When the density of the cells reaches 80% of the Petri dish, the cells was washed with phosphate buffer solution (PBS), followed by digestion with Trypsin/EDTA for 2-3 minutes. The digestion was terminated by adding cell culture medium, then the solution was transferred and centrifuged to remove the supernatant, and added with cell culture medium (DMEM, 15% fetal bovine serum and 1% 100×Penicillin-Streptomycin). After uniformly mixing, the cells were dripped onto a circular slide and cultured in a Petri dish to obtain the test cells.
Channel current was recorded by applying electrophysiological manual patch clamp in a whole-cell recording mode: extracellular fluid was perfused until the current was stable, after the peak value of the tail current (control current value) was recorded, the extracellular fluid containing different concentrations of the test compound was perfused, continuously recording was conducted until the inhibition effect of the medicine on the hERG current reach stable, and the peak value of the tail current (current value after drug administration) was recorded.

Where two headings read alike, the source gives them in different places.

T3 sequence (P41597 whole entry): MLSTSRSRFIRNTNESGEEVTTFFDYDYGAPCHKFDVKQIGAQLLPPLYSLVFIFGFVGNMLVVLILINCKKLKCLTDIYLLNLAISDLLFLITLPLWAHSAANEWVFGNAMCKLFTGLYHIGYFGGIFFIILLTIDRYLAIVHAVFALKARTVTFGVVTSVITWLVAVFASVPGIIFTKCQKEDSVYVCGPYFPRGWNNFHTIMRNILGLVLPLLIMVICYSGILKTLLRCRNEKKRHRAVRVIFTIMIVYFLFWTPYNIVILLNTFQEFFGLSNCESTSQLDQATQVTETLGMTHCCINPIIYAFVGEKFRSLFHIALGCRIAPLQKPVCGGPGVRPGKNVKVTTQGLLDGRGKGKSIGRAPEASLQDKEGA
T4 sequence (P51681 whole entry): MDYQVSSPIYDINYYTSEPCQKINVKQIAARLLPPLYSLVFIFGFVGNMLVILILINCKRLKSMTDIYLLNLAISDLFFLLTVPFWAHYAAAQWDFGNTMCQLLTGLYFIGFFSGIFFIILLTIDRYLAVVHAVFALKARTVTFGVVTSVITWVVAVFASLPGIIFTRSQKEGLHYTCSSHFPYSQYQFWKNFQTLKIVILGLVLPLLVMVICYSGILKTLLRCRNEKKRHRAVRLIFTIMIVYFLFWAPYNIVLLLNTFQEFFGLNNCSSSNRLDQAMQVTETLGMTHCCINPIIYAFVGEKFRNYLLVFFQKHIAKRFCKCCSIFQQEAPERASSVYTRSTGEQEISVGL
T1 sequence (P08684 whole entry): as the sequence (P08684 whole entry) above

Consider `CCCCOCCOc1ccc(-c2ccc3c(c2)/C=C(/C(=O)Nc2ccc([S@@+]([O-])Cc4cncn4CCC)cc2)CCCN3CC(C)C)cc1` [Cenicriviroc, reference compound], for which the IC50 on CYP 3A4M is 3.43 µM. For the same compound, the IC50 at CYP 3A4T is 12.7 µM. Moreover, in data set [1] (liver), the AUClast was 6033 ± 2193 ng·h/g, the peak level (Cmax) was 688 ± 229 ng/g and the half-life is 3.93 ± 1.88 h. Further, in data set [1] (blood plasma), the AUC(0-t) was 6330 ± 3440 ng·h/mL, the highest level (Cmax) was 746 ± 428 ng/mL, the bioavailability is 10.8 ± 3.5% and the half-life was 4.33 ± 0.87 h.

As for `CCCCOCCOc1ccc(-c2ccc3c(c2)/C=C(/C(=O)Nc2ccc([S@@+]([O-])Cc4cncn4CCC)cc2)CCCN3CC(C)(C)C(=O)O)cc1` [Compound 1, (S,E)-3-(8-(4-(2-butoxyethoxy)phenyl)-5-((4-(((1-propyl-1H-imidazol-5-yl)methyl)sulfinyl)phenyl)carbamoyl)-3,4-dihydrobenzo[b]azacyclooctatetraen-1(2H)-yl)-2,2-dimethylpropanoic acid], the IC50 on CCR2 is 0.74 nM; on CCR5 it was 0.33 nM; at CYP 1A2, above 10 µM; at CYP 2D6, above 10 µM.

Take `CCCCOCCOc1ccc(-c2ccc3c(c2)/C=C(/C(=O)Nc2ccc([S+]([O-])Cc4c(C)ncn4CCC)cc2)CCCN3CC(C)(C)C(=O)O)cc1` (stereo not shown) [Compound 2, (E)-3-(8-(4-(2-butoxyethoxy)phenyl)-5-((4-(((4-methyl-1-propyl-1H-imidazol-5-yl)methyl)sulfinyl)phenyl)carbamoyl)-3,4-dihydrobenzo[b]azacyclooctatetraen-1(2H)-yl)-2,2-dimethylpropanoic acid]: the IC50 at CCR2 is 6.38 nM; on CCR5, 3.18 nM; on CYP 1A2, above 10 µM; at CYP 2D6, above 10 µM; at CYP 3A4M it was 27.8 µM; at CYP 3A4T, 62.2 µM. In addition, the IC50 in data set [2] was above 10 µM.

As to `CCCCOCCOc1ccc(-c2ccc3c(c2)/C=C(/C(=O)Nc2ccc([S@@+]([O-])Cc4c(C)ncn4CCC)cc2)CCCN3CC(C)(C)C(=O)O)cc1` [Compound 3], the IC50 on CCR2 is 0.81 nM; at CCR5, 1.48 nM; on CYP 1A2, above 10 µM; at CYP 2D6 it was above 10 µM; on CYP 3A4M, 13.3 µM; at CYP 3A4T it was 32.3 µM. The compound also yielded an IC50 in data set [2] above 10 µM. The compound also came in with an AUClast in data set [1] (liver) of 386938 ± 30242 ng·h/g. Also, the Kp is around 2340 in data set [1] (AUClast liver vs plasma, read-out: exposure in the liver relative to that in the plasma) and around 530 in data set [1] (Cmax liver vs plasma, read-out: drug concentration in the liver relative to that in the plasma). The compound further gave an AUC(0-t) in data set [1] (blood plasma) of 165 ± 36 ng·h/mL. The values for the maximum concentration (Cmax) in data set [1] (blood plasma) and in data set [1] (liver) were 49.7 ± 10.6 ng/mL and 26600 ± 200 ng/g, respectively. The compound further had a bioavailability in data set [1] (blood plasma) of 20.9 ± 4.5%. Also, the half-life in data set [1] (blood plasma) is 1.93 ± 0.37 h; in data set [1] (liver) it was 7.2 ± 0.5 h.

For the compound `CCCCOCCOc1ccc(-c2ccc3c(c2)/C=C(/C(=O)Nc2ccc([S@+]([O-])Cc4c(C)ncn4CCC)cc2)CCCN3CC(C)(C)C(=O)O)cc1` [Compound 4], the IC50 at CCR2 is 6.12 nM; at CCR5, 2.82 nM; on CYP 1A2 it was above 10 µM; on CYP 2D6, above 10 µM; at CYP 3A4M, 15.3 µM; at CYP 3A4T it was 48.3 µM. The compound also came in with an IC50 in data set [2] above 10 µM.

These data come from patent US11292785B2, “Nitrogen-containing benzoheterocycle compound comprising carboxylic acid group, preparation method and use thereof” (Sichuan Kelun-Biotech Biopharmaceutical Co., Ltd., priority 2018, dated 2022).
